What all share (format): cell-based
Series [1] relates to chikungunya virus. Briefly: Chikungunya micro-neutralization test. To be noted: Vero cells, MOI 0.001, 3 days. On the procedure: (§1) African green monkey kidney Vero cells were infected with chikungunya virus at an MOI of 0.001 in the presence of chlorophyllide at indicated dosages, and then incubated for 3 days, followed by the micro-neutralization test.
In series [2] the test system is African green monkey kidney Vero cells. Briefly: Cytotoxicity, control group of chikungunya micro-neutralization test. Particulars: 3 days. On the procedure:
as §1

Series [3] concerns Zika virus. Briefly: Zika micro-neutralization test. To be noted: Vero cells, MOI 0.1, 4 to 5 days. The procedure: (§2) African green monkey kidney Vero cells were infected with Zika virus at an MOI of 0.1 in the presence of chlorophyllide at indicated dosages, and then incubated for 4 to 5 days, followed by the micro-neutralization test.
The test system of series [4] is African green monkey kidney Vero cells. The series is described as follows: Cytotoxicity, control group of Zika micro-neutralization test. To be noted: 4 to 5 days. On the procedure: as §2

Take chlorophyllide: the “EC50 for antiviral activity against chikungunya” value in series [1] was determined as 18.75 µg/mL. Besides, the cytotoxicity dose entry in series [2] and in series [4] was “greater than 100 μg/mL” each time. Further, the “EC50 for antiviral activity against Zika” value in series [3] turned out to be 12.5 µg/mL.

The values above are taken from patent US20220175728A1, “PHARMACEUTICAL USE OF CHLOROPHYLLIDE FOR ANTI-VIRAL INFECTION” (I-SHOU UNIVERSITY, priority 2020, published 2022).
